Common to all, as to assay type: cell-based
Conditions in all cases: n = 2

The target of experiment [1] is T1, hGIP-R (Homo sapiens, UniProt P48546).
T1 construct: expressed in transfected cells
T1 sequence (P48546 22-466): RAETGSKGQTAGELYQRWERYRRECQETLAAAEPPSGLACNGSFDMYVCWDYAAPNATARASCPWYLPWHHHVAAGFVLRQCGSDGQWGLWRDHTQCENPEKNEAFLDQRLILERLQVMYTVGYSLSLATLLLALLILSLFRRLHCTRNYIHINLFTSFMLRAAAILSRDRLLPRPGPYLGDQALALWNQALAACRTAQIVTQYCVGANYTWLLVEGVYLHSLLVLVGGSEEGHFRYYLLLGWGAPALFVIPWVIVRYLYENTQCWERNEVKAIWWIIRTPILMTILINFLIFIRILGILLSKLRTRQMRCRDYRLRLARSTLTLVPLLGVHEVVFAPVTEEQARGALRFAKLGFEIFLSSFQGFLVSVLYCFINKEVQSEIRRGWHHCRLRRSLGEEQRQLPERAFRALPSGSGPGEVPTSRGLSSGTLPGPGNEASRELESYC
Put plainly: cAMP functional assay, cells expressing human GIP receptor (primary assay).

Experiment [2] has as its target T2, hGLP-1R (Homo sapiens, UniProt P43220).
T2 construct: expressed in transfected cells
Put plainly: cAMP functional assay, cells expressing human GLP-1 receptor (primary assay).

Experiment [3] has as its target T3, hGluc-R (Homo sapiens, UniProt P47871).
T3 construct: expressed in transfected cells
Put plainly: cAMP functional assay, cells expressing human glucagon receptor (primary assay). Here is the method: The biological activities/receptor potencies of the synthetic GLP-1 peptides described herein are suitably tested for biological activity, e.g., stimulation of one or more cellular receptor responses. Stable cell lines expressing human, mouse, rat, or dog GLP-1 receptor (GLP-1R), glucagon receptor (GCGR) or glucose-dependent insulinotropic peptide (gastric inhibitory polypeptide) receptor (GIPR) are generated in HEK293 cells or CHO cells by standard methods.
cAMP assays were performed using “assay buffer”: Assay Buffer: 0.1% BSA (Sigma #A3059) in HBSS (Sigma #H8264) with 25 mM HEPES, pH 7.4 and containing 0.5 mM IBMX (Sigma #17018).
Low protein binding 384-well plates (Greiner #781280) are used to perform eleven 1 in 5 serial dilutions of test samples which are made in assay buffer. All sample dilutions are made in duplicate.
A frozen cryo-vial of cells expressing the receptor of interest is thawed rapidly in a water-bath, transferred to pre-warmed assay buffer and spun at 240× g for 5 minutes. Cells are re-suspended in assay buffer at a batch-dependent optimized concentration (e.g. hGCGR cells at 2×10^5 cells/ml, hGLP-1R and hGIPR cells at 1×10^5 cells /ml).
From the dilution plate, a 5 μL replica is stamped onto a black shallow-well u-bottom 384-well plate (Corning #3676). To this, 5 μL cell suspension is added and the plates incubated at room temperature for 30 minutes.
cAMP levels are measured using a commercially available cAMP dynamic 2 HTRF kit (Cisbio, Cat #62AM4PEJ), following the two step protocol as per manufacturer's recommendations. In brief; anti-cAMP cryptate (donor fluorophore) and cAMP-d2 (acceptor fluorophore) are made up separately by diluting each 1/20 in conjugate & lysis buffer provided in the kit. 5 μL anti-cAMP cryptate is added to all wells of the assay plate, and 5 μL cAMP-d2 is added to all wells except non-specific binding (NSB) wells, to which conjugate and lysis buffer are added. Plates are incubated at room temperature for one hour and then read on an Envision (Perkin Elmer) using excitation wavelength of 320 nm and emission wavelengths of 620 nm & 665 nm. EC50 values of the synthetic peptides determined in cAMP assays are then determined.

Where a SMILES comes first, the peptide text is derived from it. [ ]: non-standard residue; d: D form. Aib = CC(C)(N)C(=O)O

T3 sequence (P47871 26-477): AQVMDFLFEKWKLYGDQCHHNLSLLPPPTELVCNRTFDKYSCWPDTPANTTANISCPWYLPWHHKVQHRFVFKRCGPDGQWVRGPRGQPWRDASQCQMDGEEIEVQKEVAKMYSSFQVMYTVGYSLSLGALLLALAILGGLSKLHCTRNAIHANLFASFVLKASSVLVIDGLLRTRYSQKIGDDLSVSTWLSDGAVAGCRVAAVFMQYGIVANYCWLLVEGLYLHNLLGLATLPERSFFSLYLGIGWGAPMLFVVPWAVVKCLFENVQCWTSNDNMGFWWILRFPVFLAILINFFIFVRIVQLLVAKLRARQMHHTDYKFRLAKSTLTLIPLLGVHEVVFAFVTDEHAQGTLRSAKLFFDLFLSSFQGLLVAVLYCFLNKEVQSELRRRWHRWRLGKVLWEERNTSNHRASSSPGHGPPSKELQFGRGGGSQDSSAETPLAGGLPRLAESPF
T2 sequence (P43220 24-463): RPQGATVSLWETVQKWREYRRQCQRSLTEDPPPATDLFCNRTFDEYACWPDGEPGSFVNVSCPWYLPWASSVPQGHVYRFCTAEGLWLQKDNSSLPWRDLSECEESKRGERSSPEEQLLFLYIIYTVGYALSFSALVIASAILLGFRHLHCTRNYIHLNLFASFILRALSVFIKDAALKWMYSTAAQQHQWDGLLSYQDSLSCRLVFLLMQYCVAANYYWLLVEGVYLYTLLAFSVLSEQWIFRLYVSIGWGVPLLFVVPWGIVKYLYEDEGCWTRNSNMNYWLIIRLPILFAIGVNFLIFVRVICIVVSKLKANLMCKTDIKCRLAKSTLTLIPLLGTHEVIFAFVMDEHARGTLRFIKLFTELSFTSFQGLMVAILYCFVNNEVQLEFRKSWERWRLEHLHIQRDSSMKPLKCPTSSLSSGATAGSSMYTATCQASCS

As for `CC[C@H](C)[C@H](NC(=O)C(C)(C)NC(=O)[C@H](CCC(=O)O)NC(=O)[C@H](CCCCN)NC(=O)[C@H](C)NC(=O)[C@H](C)NC(=O)[C@H](CCC(N)=O)NC(=O)CNC(=O)[C@H](CCC(=O)O)NC(=O)[C@H](CC(C)C)NC(=O)[C@H](Cc1ccc(O)cc1)NC(=O)[C@H](CO)NC(=O)[C@H](CO)NC(=O)[C@@H](NC(=O)[C@H](CC(=O)O)NC(=O)[C@H](CO)NC(=O)[C@@H](NC(=O)[C@H](Cc1ccccc1)NC(=O)[C@@H](NC(=O)CNC(=O)[C@H](CCC(=O)O)NC(=O)C(C)(C)NC(=O)[C@@H](N)Cc1c[nH]cn1)[C@@H](C)O)[C@@H](C)O)C(C)C)C(=O)N[C@@H](C)C(=O)N[C@@H](Cc1c[nH]c2ccccc12)C(=O)N[C@@H](CC(C)C)C(=O)N[C@H](C(=O)N[C@@H](CCCCN)C(=O)NCC(=O)N[C@@H](CCCNC(=N)N)C(N)=O)C(C)C` [SEQ ID NO: 12, H-(Aib)^2-EGT^5 FTSDV^10 SSYLE^15 GQAAK^20 E-(Aib)^22IAW^25 LVKGR^30] (H-H[Aib]EGTFTSDVSSYLEGQAAKE[Aib]IAWLVKGR-NH2), the EC50 in experiment [1] stood at 147 nM; in experiment [2] it was 2.58 nM; in experiment [3], 147 nM.
Take `CC[C@H](C)[C@H](NC(=O)[C@H](Cc1ccccc1)NC(=O)[C@H](CCC(=O)O)NC(=O)[C@H](CCCCN)NC(=O)[C@H](C)NC(=O)[C@H](C)NC(=O)[C@H](CCC(N)=O)NC(=O)CNC(=O)[C@H](CCC(=O)O)NC(=O)[C@H](CC(C)C)NC(=O)[C@H](Cc1ccc(O)cc1)NC(=O)[C@H](CO)NC(=O)[C@H](CO)NC(=O)[C@@H](NC(=O)[C@H](CC(=O)O)NC(=O)[C@H](CO)NC(=O)[C@@H](NC(=O)[C@H](Cc1ccccc1)NC(=O)[C@@H](NC(=O)CNC(=O)[C@H](CCC(=O)O)NC(=O)C(C)(C)NC(=O)[C@@H](N)Cc1c[nH]cn1)[C@@H](C)O)[C@@H](C)O)C(C)C)C(=O)N[C@@H](C)C(=O)N[C@@](C)(Cc1c[nH]c2ccccc12)C(=O)N[C@@H](CC(C)C)C(=O)N[C@H](C(=O)N[C@@H](CCCCN)C(=O)NCC(=O)N[C@@H](CCCNC(=N)N)C(N)=O)C(C)C` [SEQ ID NO: 13, H-(Aib)^2-EGT^5 FTSDV^10 SSYLE^15 GQAAK^20 EFIA-(α-MeW)^25 LVKGR^30]: the EC50 was 164 nM in experiment [1], 0.026 nM in experiment [2] and 164 nM in experiment [3].
Take `CC[C@H](C)[C@H](NC(=O)[C@H](Cc1ccccc1)NC(=O)[C@H](CCC(=O)O)NC(=O)[C@H](CCCCN)NC(=O)[C@H](C)NC(=O)[C@H](C)NC(=O)[C@H](CCC(N)=O)NC(=O)CNC(=O)[C@H](CCC(=O)O)NC(=O)[C@H](CC(C)C)NC(=O)[C@H](Cc1ccc(O)cc1)NC(=O)[C@H](CO)NC(=O)[C@H](CO)NC(=O)[C@@H](NC(=O)[C@H](CC(=O)O)NC(=O)[C@H](CO)NC(=O)[C@@H](NC(=O)[C@H](Cc1ccccc1)NC(=O)[C@@H](NC(=O)CNC(=O)[C@H](CCC(=O)O)NC(=O)C(C)(C)NC(=O)[C@@H](N)Cc1c[nH]cn1)[C@@H](C)O)[C@@H](C)O)C(C)C)C(=O)N[C@@H](C)C(=O)N[C@@](C)(Cc1ccccc1)C(=O)N[C@@H](CC(C)C)C(=O)N[C@H](C(=O)N[C@@H](CCCCN)C(=O)NCC(=O)N[C@@H](CCCNC(=N)N)C(N)=O)C(C)C` [SEQ ID NO: 14, H-(Aib)^2-EGT^5 FTSDV^10 SSYLE^15 GQAAK^20 EFIA-(α-MeF)^25 LVKGR^30]: the EC50 amounted to 170 nM in experiment [1], 0.0196 nM in experiment [2] and 170 nM in experiment [3].
As for `CC[C@H](C)[C@H](NC(=O)[C@H](Cc1ccccc1)NC(=O)[C@H](CCC(=O)O)NC(=O)[C@H](CCCCN)NC(=O)[C@H](C)NC(=O)[C@H](C)NC(=O)[C@H](CCC(N)=O)NC(=O)CNC(=O)[C@H](CCC(=O)O)NC(=O)[C@H](CC(C)C)NC(=O)[C@H](Cc1ccc(O)cc1)NC(=O)[C@H](CO)NC(=O)[C@H](CO)NC(=O)[C@@H](NC(=O)[C@H](CC(=O)O)NC(=O)[C@H](CO)NC(=O)[C@@H](NC(=O)[C@H](Cc1ccccc1)NC(=O)[C@@H](NC(=O)CNC(=O)[C@H](CCC(=O)O)NC(=O)C(C)(C)NC(=O)[C@@H](N)Cc1c[nH]cn1)[C@@H](C)O)[C@@H](C)O)C(C)C)C(=O)N[C@@H](C)C(=O)NC(C)(C)C(=O)N[C@@H](CC(C)C)C(=O)N[C@H](C(=O)N[C@@H](CCCCN)C(=O)NCC(=O)N[C@@H](CCCNC(=N)N)C(N)=O)C(C)C` [SEQ ID NO: 15, H-(Aib)^2-EGT^5 FTSDV^10 SSYLE^15 GQAAK^20 EFIA-(Aib)^25 LVKGR^30], the values for the EC50 in experiment [1], in experiment [2] and in experiment [3] were 177 nM, 0.0465 nM and 177 nM, respectively.
As to `CC[C@H](C)[C@H](NC(=O)[C@H](Cc1ccccc1)NC(=O)[C@H](CCC(=O)O)NC(=O)[C@](C)(CCCCN)NC(=O)[C@H](C)NC(=O)[C@H](C)NC(=O)[C@H](CCC(N)=O)NC(=O)CNC(=O)[C@H](CCC(=O)O)NC(=O)[C@H](CC(C)C)NC(=O)[C@H](Cc1ccc(O)cc1)NC(=O)[C@H](CO)NC(=O)[C@H](CO)NC(=O)[C@@H](NC(=O)[C@H](CC(=O)O)NC(=O)[C@H](CO)NC(=O)[C@@H](NC(=O)[C@H](Cc1ccccc1)NC(=O)[C@@H](NC(=O)CNC(=O)[C@H](CCC(=O)O)NC(=O)C(C)(C)NC(=O)[C@@H](N)Cc1c[nH]cn1)[C@@H](C)O)[C@@H](C)O)C(C)C)C(=O)N[C@@H](C)C(=O)N[C@@H](Cc1c[nH]c2ccccc12)C(=O)N[C@@H](CC(C)C)C(=O)N[C@H](C(=O)N[C@@H](CCCCN)C(=O)NCC(=O)N[C@@H](CCCNC(=N)N)C(N)=O)C(C)C` [SEQ ID NO: 20, H-(Aib)^2-EGT^5 FTSDV^10 SSYLE^15 GQAA-(α-MeK)^20 EFIAW^25 LVKGR^30], the concentration for a half-maximal effect (EC50) turned out to be 110 nM in experiment [1], 0.0167 nM in experiment [2] and 110 nM in experiment [3].
With `CC[C@H](C)[C@H](NC(=O)[C@H](Cc1ccccc1)NC(=O)[C@H](CCC(=O)O)NC(=O)C(C)(C)NC(=O)[C@H](C)NC(=O)[C@H](C)NC(=O)[C@H](CCC(N)=O)NC(=O)CNC(=O)[C@H](CCC(=O)O)NC(=O)[C@H](CC(C)C)NC(=O)[C@H](Cc1ccc(O)cc1)NC(=O)[C@H](CO)NC(=O)[C@H](CO)NC(=O)[C@@H](NC(=O)[C@H](CC(=O)O)NC(=O)[C@H](CO)NC(=O)[C@@H](NC(=O)[C@H](Cc1ccccc1)NC(=O)[C@@H](NC(=O)CNC(=O)[C@H](CCC(=O)O)NC(=O)C(C)(C)NC(=O)[C@@H](N)Cc1c[nH]cn1)[C@@H](C)O)[C@@H](C)O)C(C)C)C(=O)N[C@@H](C)C(=O)N[C@@H](Cc1c[nH]c2ccccc12)C(=O)N[C@@H](CC(C)C)C(=O)N[C@H](C(=O)N[C@@H](CCCCN)C(=O)NCC(=O)N[C@@H](CCCNC(=N)N)C(N)=O)C(C)C` [SEQ ID NO: 21, H-(Aib)^2-EGT^5 FTSDV^10 SSYLE^15 GQAA-(Aib)^26 EFIAW^25 LVKGR^30], the results for the EC50 in experiment [1], in experiment [2] and in experiment [3] were 76.5 nM, 0.02 nM and 76.5 nM, respectively.
On to `CC[C@H](C)[C@H](NC(=O)[C@H](Cc1ccccc1)NC(=O)[C@H](CCC(=O)O)NC(=O)[C@H](CCCCN)NC(=O)[C@H](C)NC(=O)[C@H](C)NC(=O)[C@H](CCC(N)=O)NC(=O)CNC(=O)[C@H](CCC(=O)O)NC(=O)[C@H](CC(C)C)NC(=O)[C@H](Cc1ccc(O)cc1)NC(=O)[C@H](CO)NC(=O)[C@H](CO)NC(=O)[C@@H](NC(=O)[C@H](CC(=O)O)NC(=O)[C@H](CO)NC(=O)[C@@H](NC(=O)[C@H](Cc1ccccc1)NC(=O)[C@@H](NC(=O)CNC(=O)[C@H](CCC(=O)O)NC(=O)C(C)(C)NC(=O)[C@@H](N)Cc1c[nH]cn1)[C@@H](C)O)[C@@H](C)O)C(C)C)C(=O)N[C@@H](C)C(=O)N[C@@H](Cc1c[nH]c2ccccc12)C(=O)N[C@@H](CC(C)C)C(=O)N[C@H](C(=O)N[C@@](C)(CCCCN)C(=O)NCC(=O)N[C@@H](CCCNC(=N)N)C(N)=O)C(C)C` [SEQ ID NO: 22, H-(Aib)^2-EGT^5 FTSDV^10 SSYLE^15 GQAAK^20 EFIAW^25 LV-(α-MeK)^28-GR^30], for which the concentration for a half-maximal effect (EC50) in experiment [1] was 91.4 nM; in experiment [2], 0.019 nM; in experiment [3] it was 91.4 nM.

For orientation: EC50 means the concentration that produces a half-maximal response. A lower EC50 goes with higher potency in that assay.

(Values after patent US20160318987A1 (MEDIMMUNE LIMITED, priority 2013, published 2016).)
